Assay [1] addresses T1, Kv1.3 potassium channel (Homo sapiens, UniProt P22001).
T1 construct: expressed in transfected cells
The assay is described as follows: Kv1.3 potassium channel blocker activity, automated whole-cell patch clamp (Patchliner). The assay is classed as cell-based. Particulars: CHO-K1 cells stably expressing Kv1.3; whole-cell current inhibition, Hill fit; read-out: Kv1.3 IC50. As for the experimental part: CHO-K1 cells stably expressing Kv1.3 were grown in DMEM containing 10% heat-inactivated FBS, 1 mM sodium pyruvate, 2 mM L-glutamine and G418 (500 μg/ml).
The currents were evoked by applying 100 ms depolarizing pulses from −90 mV (holding potential) to +40 mV were applied with 0.1 Hz frequency. […] 10-second breaks were used between pulse trains (see Table H below).
Passive leak currents were subtracted online using a P/4 procedure (HEKA Elektronik Dr. Schulze GmbH). […] Total compound incubation time before the next pulse train was not longer than 10 seconds. Peak current inhibition was observed during compound equilibration.
In general terms: Patch clamp records ionic current or voltage across a cell membrane.

Assay [2] has as its target hERG channel (Homo sapiens, UniProt Q12809). The assay is described as follows: cell-based.
Experimental: This assay is used to evaluate the disclosed compounds' inhibition activities against the hERG channel.
CHO-K1 cells stably expressing hERG were grown in Ham's F-12 Medium with glutamine containing 10% heat-inactivated FBS, 1% penicillin/streptomycin, hygromycin (100 μg/ml) and G418 (100 μg/ml). Cells were grown in culture flasks at 37° C. in a 5% CO2-humidified incubator.
All compounds were dissolved in DMSO at 30 mM. Compound stock solutions were freshly diluted with external solution to concentrations of 30 nM, 100 nM, 300 nM, 1 μM, 3 μM, 10 μM, 30 μM and 100 μM. The highest content of DMSO (0.3%) was present in 100 μM.
The voltage protocol (see Table I) was designed to simulate voltage changes during a cardiac action potential with a 300 ms depolarization to +20 mV (analogous to the plateau phase of the cardiac action potential), a repolarization for 300 ms to −50 mV (inducing a tail current) and a final step to the holding potential of −80 mV. The pulse frequency was 0.3 Hz. Control (compound-free) and compound pulse trains for each compound concentration applied contained 70 pulses.
Whole-cell current recordings and compound application were enabled by means of an automated patch clamp platform Patchliner (Nanion). EPC 10 patch clamp amplifier (HEKA) along with Patchmaster software (HEKA Elektronik Dr. Schulze GmbH) was used for data acquisition. Data were sampled at 10 kHz without filtering. Increasing compound concentrations were applied consecutively to the same cell without washouts in between.
AUC and PEAK values were obtained with Patchmaster (HEKA Elektronik Dr. Schulze GmbH). To determine IC50 the last single pulse in the pulse train corresponding to a given compound concentration was used. Obtained AUC and PEAK values in the presence of compound were normalized to control values in the absence of compound.

T1 sequence (P22001 whole entry): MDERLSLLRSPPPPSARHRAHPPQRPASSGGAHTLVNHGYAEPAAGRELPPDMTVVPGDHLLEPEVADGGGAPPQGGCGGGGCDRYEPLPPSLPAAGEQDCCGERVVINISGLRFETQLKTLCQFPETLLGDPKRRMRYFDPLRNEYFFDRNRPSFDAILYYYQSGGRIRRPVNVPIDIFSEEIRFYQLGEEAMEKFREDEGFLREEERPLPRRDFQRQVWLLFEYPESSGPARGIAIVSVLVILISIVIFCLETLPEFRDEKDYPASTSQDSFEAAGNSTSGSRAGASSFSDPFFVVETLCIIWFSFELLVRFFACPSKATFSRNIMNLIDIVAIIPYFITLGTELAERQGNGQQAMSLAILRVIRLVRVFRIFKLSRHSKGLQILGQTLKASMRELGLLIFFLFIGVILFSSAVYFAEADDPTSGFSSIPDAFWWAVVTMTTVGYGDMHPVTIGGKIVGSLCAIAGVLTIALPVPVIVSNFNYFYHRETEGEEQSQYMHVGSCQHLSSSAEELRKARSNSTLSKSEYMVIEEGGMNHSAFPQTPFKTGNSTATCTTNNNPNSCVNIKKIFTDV
Sequence of hERG channel (Q12809 whole entry): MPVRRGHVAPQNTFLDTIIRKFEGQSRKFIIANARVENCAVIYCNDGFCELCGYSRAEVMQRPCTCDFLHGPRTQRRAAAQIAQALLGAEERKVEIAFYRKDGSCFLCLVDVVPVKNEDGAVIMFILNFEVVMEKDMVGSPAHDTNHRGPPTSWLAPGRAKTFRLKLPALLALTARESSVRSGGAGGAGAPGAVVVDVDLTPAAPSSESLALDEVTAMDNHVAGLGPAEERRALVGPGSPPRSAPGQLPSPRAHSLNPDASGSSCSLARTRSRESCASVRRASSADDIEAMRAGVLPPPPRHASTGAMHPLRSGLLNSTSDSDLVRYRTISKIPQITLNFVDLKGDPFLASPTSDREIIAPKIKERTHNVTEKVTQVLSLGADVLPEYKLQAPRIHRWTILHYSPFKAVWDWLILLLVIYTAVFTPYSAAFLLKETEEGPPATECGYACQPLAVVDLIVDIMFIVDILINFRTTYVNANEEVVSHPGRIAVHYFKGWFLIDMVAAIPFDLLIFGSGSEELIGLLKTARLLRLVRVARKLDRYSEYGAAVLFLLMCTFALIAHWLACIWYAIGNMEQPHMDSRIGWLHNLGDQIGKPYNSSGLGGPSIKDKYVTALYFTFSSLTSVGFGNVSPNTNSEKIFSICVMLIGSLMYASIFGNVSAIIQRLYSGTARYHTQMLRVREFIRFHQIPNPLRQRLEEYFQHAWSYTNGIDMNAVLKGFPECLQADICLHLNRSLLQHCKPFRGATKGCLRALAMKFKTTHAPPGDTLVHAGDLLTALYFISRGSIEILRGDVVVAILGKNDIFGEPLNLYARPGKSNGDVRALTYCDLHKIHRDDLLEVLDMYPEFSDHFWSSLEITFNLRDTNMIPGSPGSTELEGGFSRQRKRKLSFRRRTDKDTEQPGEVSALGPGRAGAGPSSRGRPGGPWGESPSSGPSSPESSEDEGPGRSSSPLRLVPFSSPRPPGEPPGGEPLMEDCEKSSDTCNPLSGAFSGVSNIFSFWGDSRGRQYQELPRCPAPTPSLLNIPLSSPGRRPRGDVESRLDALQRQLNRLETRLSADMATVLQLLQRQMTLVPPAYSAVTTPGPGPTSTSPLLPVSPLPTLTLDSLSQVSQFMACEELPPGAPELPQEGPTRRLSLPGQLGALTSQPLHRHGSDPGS

Turning to `O=C1C[C@@H](c2c(O)ccc(Cl)c2Cl)CN1C[C@H](O)CO` [Compound 30, (4S)-4-(2,3-dichloro-6-hydroxyphenyl)-1-[(2S)-2,3-dihydroxypropyl]pyrrolidin-2-one], the IC50 (as a rule, the point on the concentration scale where inhibition reaches its midpoint) in assay [1] was < 0.1 µM; in assay [2], > 100 µM.

For `C[C@@H]1C(=O)N(C2CNC2)C[C@@H]1c1c(O)ccc(Cl)c1Cl` (single isomer, unassigned; isomer 4) [Compound 90, 1-(azetidin-3-yl)-4-(2,3-dichloro-6-hydroxyphenyl)-3-methylpyrrolidin-2-one isomer 4], the IC50 in assay [1] was < 1 µM; in assay [2], > 100 µM.

In the case of `O=C1N[C@@H](c2c(O)ccc(Cl)c2Cl)CCN1[C@@H]1CCNC1` (single isomer, unassigned) [Compound 9, 4-(2,3-dichloro-6-hydroxyphenyl)-1-[pyrrolidin-3-yl]-tetrahydropyrimidin-2(1H)-one], the IC50 in assay [1] was < 1 µM; in assay [2], > 10 µM.

With `Cn1cc(CN2C[C@H](c3c(O)ccc(Cl)c3Cl)CC2=O)cn1` [Compound 23, (4S)-4-(2,3-dichloro-6-hydroxyphenyl)-1-[(1-methylpyrazol-4-yl)methyl]pyrrolidin-2-one], the concentration for half-maximal inhibition (IC50) was < 1 µM in assay [1] and > 30 µM in assay [2].

Take `O=C1N[C@H](c2c(O)ccc(Cl)c2Cl)CCN1[C@@H]1CCNC1` (single isomer, unassigned) [Compound 11, 4-(2,3-dichloro-6-hydroxyphenyl)-1-[pyrrolidin-3-yl]-tetrahydropyrimidin-2(1H)-one]: the IC50 is < 1 µM in assay [1] and > 10 µM in assay [2].

As for `COCCN1C[C@H](c2c(O)ccc(Cl)c2Cl)CC1=O` [Compound 36, (4S)-4-(2,3-dichloro-6-hydroxyphenyl)-1-(2-methoxyethyl)pyrrolidin-2-one], the IC50 in assay [1] is < 0.1 µM; in assay [2] it was > 30 µM.

Consider `O=C1C[C@@H](c2c(O)ccc(Cl)c2Cl)CN1c1cnoc1` [Compound 72, (4S)-4-(2,3-dichloro-6-hydroxyphenyl)-1-(isoxazol-4-yl)pyrrolidin-2-one], for which the half-inhibitory concentration (IC50) in assay [1] was < 1 µM; in assay [2], > 100 µM.

On to `Cn1cc(N2CC(c3c(O)ccc(Cl)c3Cl)CC2=O)ccc1=O` (centres unmarked) [Compound 57, 5-[4-(2,3-dichloro-6-hydroxyphenyl)-2-oxopyrrolidin-1-yl]-1-methylpyridin-2-one], for which the IC50 in assay [1] was < 0.1 µM; in assay [2] it was > 10 µM.

`N[C@H]1C(=O)N(C2CNC2)C[C@@H]1c1c(O)ccc(Cl)c1Cl` [Compound 92, (3R,4S)-3-amino-1-(azetidin-3-yl)-4-(2,3-dichloro-6-hydroxyphenyl)pyrrolidin-2-one]: the IC50 in assay [1] was < 1 µM; in assay [2], > 100 µM.

`O=C1O[C@@H](c2c(O)ccc(Cl)c2Cl)CN1CCO` (single isomer, unassigned; isomer 2) [Compound 94, 5-(2,3-dichloro-6-hydroxyphenyl)-3-(2-hydroxyethyl)oxazolidin-2-one isomer 2]: the IC50 was < 1 µM in assay [1] and > 100 µM in assay [2].

With `O=C1C[C@@H](c2c(O)ccc(Cl)c2Cl)CN1[C@@H]1CCNC1` (single isomer, unassigned) [Compound 14, 4-(2,3-dichloro-6-hydroxyphenyl)-[1,3-bipyrrolidin]-2-one], the values for the IC50 in assay [1] and in assay [2] were < 1 µM and > 30 µM, respectively.

Consider `O=C1C[C@@H](c2c(O)ccc(Cl)c2Cl)CN1[C@H]1C[C@H](CO)C1` (single isomer, unassigned; isomer 1) [Compound 25], for which the values for the IC50 in assay [1] and in assay [2] were < 0.1 µM and > 30 µM, respectively.

As to `O=C1C[C@@H](c2c(O)ccc(Cl)c2Cl)CN1CCC(F)(F)F` [Compound 37, (4S)-4-(2,3-dichloro-6-hydroxyphenyl)-1-(3,3,3-trifluoropropyl)pyrrolidin-2-one], the IC50 was < 1 µM in assay [1] and > 100 µM in assay [2].

With `O=C1C[C@@H](c2c(O)ccc(Cl)c2Cl)CN1C1CC(F)(F)C1` [Compound 74, (S)-4-(2,3-dichloro-6-hydroxyphenyl)-1-(3,3-difluorocyclobutyl)pyrrolidin-2-one], the IC50 was < 1 µM in assay [1] and > 30 µM in assay [2].

`Cn1cc(N2C[C@H](c3c(O)ccc(Cl)c3Cl)CC2=O)nn1` [Compound 65, (S)-4-(2,3-dichloro-6-hydroxyphenyl)-1-(1-methyl-1H-1,2,3-triazol-4-yl)pyrrolidin-2-one]: the IC50 in assay [1] was < 1 µM; in assay [2], > 10 µM.

Regarding `O=C1C[C@@H](c2c(O)ccc(Cl)c2Cl)CN1CCCO` [Compound 35, (4S)-4-(2,3-dichloro-6-hydroxyphenyl)-1-(3-hydroxypropyl)pyrrolidin-2-one], the 50% inhibitory concentration (IC50) is < 0.01 µM in assay [1] and > 30 µM in assay [2].

As for `O=C1C[C@@H](c2c(O)ccc(Cl)c2Cl)CN1C1CNC1` [Compound 19, (4S)-1-(azetidin-3-yl)-4-(2,3-dichloro-6-hydroxyphenyl)pyrrolidin-2-one], the IC50 in assay [1] is < 0.1 µM; in assay [2] it was > 100 µM.

Take `O=C1CC[C@@H](c2c(O)ccc(Cl)c2Cl)CN1[C@@H]1CCNC1` (single isomer, unassigned) [Compound 5, 5-(2,3-dichloro-6-hydroxyphenyl)-1-[pyrrolidin-3-yl]piperidin-2-one]: the IC50 in assay [1] is < 0.1 µM; in assay [2], > 30 µM.

Take `O=C1C[C@@H](c2c(O)ccc(Cl)c2Cl)CN1CC(CO)CO` [Compound 42, (4S)-4-(2,3-dichloro-6-hydroxyphenyl)-1-[3-hydroxy-2-(hydroxymethyl)propyl]pyrrolidin-2-one]: the IC50 in assay [1] was < 0.1 µM; in assay [2] it was > 30 µM.

On to `O=C1C[C@@H](c2c(O)ccc(Cl)c2Cl)CN1CC1CNC1` [Compound 20, (4S)-1-(azetidin-3-ylmethyl)-4-(2,3-dichloro-6-hydroxyphenyl)pyrrolidin-2-one], for which the IC50 in assay [1] was < 0.1 µM; in assay [2], > 100 µM.

With `O=C1C[C@H](c2c(O)ccc(Cl)c2Cl)CN1[C@@H]1CCNC1` (single isomer, unassigned) [Compound 13, 4-(2,3-dichloro-6-hydroxyphenyl)-[1,3-bipyrrolidin]-2-one], the values for the IC50 in assay [1] and in assay [2] were < 0.1 µM and > 10 µM, respectively.

As for `C[C@@H](O)CN1C[C@H](c2c(O)ccc(Cl)c2Cl)CC1=O` [Compound 53, (S)-4-(2,3-dichloro-6-hydroxyphenyl)-1-((R)-2-hydroxypropyl)pyrrolidin-2-one], the IC50 in assay [1] is < 0.1 µM; in assay [2], > 30 µM.

Turning to `NCC(O)CN1C[C@H](c2c(O)ccc(Cl)c2Cl)CC1=O` (single isomer, unassigned; isomer 2) [Compound 52], the figures for the IC50 in assay [1] and in assay [2] were < 0.1 µM and > 100 µM, respectively.

Regarding `Cn1cc(N2C[C@H](c3c(O)ccc(Cl)c3Cl)CC2=O)cn1` [Compound 56, (4S)-4-(2,3-dichloro-6-hydroxyphenyl)-1-(1-methylpyrazol-4-yl)pyrrolidin-2-one], the results for the IC50 in assay [1] and in assay [2] were < 0.1 µM and > 100 µM, respectively.

For `O=C1C[C@@H](c2c(O)ccc(Cl)c2Cl)CN1[C@H]1C[C@](O)(CO)C1` (single isomer, unassigned; isomer 4) [Compound 71], the results for the IC50 in assay [1] and in assay [2] were < 0.1 µM and > 100 µM, respectively.

On to `O=C1C[C@@H](c2c(O)ccc(Cl)c2Cl)CN1C1CCOCC1` [Compound 17, (4S)-4-(2,3-dichloro-6-hydroxyphenyl)-1-(pyran-4-yl)pyrrolidin-2-one], for which the results for the IC50 in assay [1] and in assay [2] were < 1 µM and > 30 µM, respectively.

Consider `NC[C@@H](O)CN1C[C@H](c2c(O)ccc(Cl)c2Cl)CC1=O` (single isomer, unassigned; isomer 1) [Compound 51], for which the results for the IC50 in assay [1] and in assay [2] were < 0.1 µM and > 100 µM, respectively.

Consider `O=C1CO[C@H](c2c(O)ccc(Cl)c2Cl)CN1CCO` (single isomer, unassigned; isomer 1) [Compound 95, 6-(2,3-dichloro-6-hydroxyphenyl)-4-(2-hydroxyethyl)morpholin-3-one isomer 1], for which the half-maximal inhibitory concentration (IC50) in assay [1] was < 1 µM; in assay [2] it was > 100 µM.

Consider `O=C1N[C@@H](c2c(O)ccc(Cl)c2Cl)CN1CCO` [Compound 99, (4S)-4-(2,3-dichloro-6-hydroxyphenyl)-1-(2-hydroxyethyl)imidazolidin-2-one], for which the IC50 in assay [1] is < 0.1 µM; in assay [2], > 100 µM.

Turning to `Cn1cnc(N2C[C@H](c3c(O)ccc(Cl)c3Cl)CC2=O)n1` [Compound 66, (S)-4-(2,3-dichloro-6-hydroxyphenyl)-1-(1-methyl-1H-1,2,4-triazol-3-yl)pyrrolidin-2-one], the figures for the IC50 in assay [1] and in assay [2] were < 1 µM and > 100 µM, respectively.

Turning to `O=C1C[C@@H](c2c(O)ccc(Cl)c2Cl)CN1CC1(CO)CNC1` [Compound 46, (S)-4-(2,3-dichloro-6-hydroxyphenyl)-1-((3-(hydroxymethyl)azetidin-3-yl)methyl)pyrrolidin-2-one], the results for the IC50 in assay [1] and in assay [2] were < 0.1 µM and > 100 µM, respectively.

For `CC1[C@H](c2c(O)ccc(Cl)c2Cl)CC(=O)N1CCO` (stereo in doubt) [Compound 81, (4S,5S)-4-(2,3-dichloro-6-hydroxyphenyl)-1-(2-hydroxyethyl)-5-methylpyrrolidin-2-one], the values for the IC50 in assay [1] and in assay [2] were < 0.1 µM and > 30 µM, respectively.

In the case of `O=C1C[C@@H](c2c(O)ccc(Cl)c2Cl)CN1[C@H]1C[C@@H](CO)C1` (single isomer, unassigned; isomer 2) [Compound 26], the IC50 is < 0.1 µM in assay [1] and > 30 µM in assay [2].

Turning to `Cn1ccc(N2C[C@H](c3c(O)ccc(Cl)c3Cl)CC2=O)cc1=O` [Compound 68, (S)-4-(4-(2,3-dichloro-6-hydroxyphenyl)-2-oxopyrrolidin-1-yl)-1-methylpyridin-2(1H)-one], the values for the IC50 in assay [1] and in assay [2] were < 1 µM and > 100 µM, respectively.

(Values after patent publication US20230373952A1, “LACTAM COMPOUNDS AS Kv1.3 POTASSIUM SHAKER CHANNEL BLOCKERS” (D.E. Shaw Research, LLC, priority 2020, published 2023).)
